Patent publication US20210161880A1, “METHODS FOR TREATING DEMENTIA RELATED PSYCHOSIS” (ACADIA Pharmaceuticals Inc., priority 2019, published 2021)

How the values were obtained:
Type in all cases: in vivo, human
[1] = system: patients with dementia related psychosis; test: Open-label period of relapse prevention study of pimavanserin; conditions: for patients meeting response criteria: ≥30% reduction on SAPS-H+D total score and CGI-I score of 1 or 2
Procedure: (§1) A double-blind, placebo-controlled study of the efficacy and safety of pimavanserin was conducted to evaluate relapse prevention in patients with dementia related psychosis. The primary endpoint of this study was time from randomization to relapse in the double-blind period. The secondary endpoint of this study was time from randomization to discontinuation from the double-blind period for any reason.
Male or female patients ≥50 and ≤90 years of age were eligible if they met the criteria for All-cause Dementia according to NIA-AA guidelines. Eligible patients met the clinical criteria for one of the following disorders, with or without cerebrovascular disease (CVD): Dementia associated with Parkinson's disease; Dementia with Lewy bodies; Possible or probable Alzheimer's disease; Frontotemporal degeneration spectrum disorders, including possible or probable behavioral variant frontotemporal dementia, progressive supranuclear palsy, or corticobasal degeneration; or Vascular dementia, including post-stroke dementia, multi-infarct dementia and/or subcortical ischemic vascular dementia (SIVD). […] In addition, eligible patients had all of the following scores at Visit 1 (Screening) and Visit 2 (open-label Baseline): SAPS-H+D total score ≥10; CGI-S ≥4 (moderately ill); and SAPS-H+D global item (H7 or D13) score ≥4 (marked). Patients with a known personal or family history or symptoms of long QT syndrome were excluded.
(§2) The study consisted of a screening period of up to 4 weeks (3-28 days); an open-label period of 12 weeks; a double-blind period of up to 26 weeks; and an approximately 4-week safety follow-up period.
During the open-label period, patients started pimavanserin 34 mg once daily (QD) by mouth beginning at Week 0 (open-label Baseline). Pimavanserin was continued daily at this dose level for at least the first week of treatment. After the first week, if the patient was unable to tolerate the 34 mg dose, the dose was decreased to 20 mg (provided as two 10 mg tablets) at any study visit (scheduled or unscheduled) until Week 4 (Visit 4). If the dose was decreased to 20 mg it may later be increased to 34 mg based on investigator judgment at any study visit (scheduled or unscheduled) until Week 4 (Visit 4). After Week 4 (Visit 4), the dose of study drug remained fixed at either 34 mg or 20 mg once daily.
The response criteria was ≥30% reduction from open-label baseline on SAPS-H+D total score and CGI-I score of 1 or 2. Analysis was restricted to eligible patients at the visit. A patient was eligible for the visit if the number of days between minimum (study discontinuation date, end of treatment date) and the first open-label dose exceeded the lower limit of the analysis visit window for the visit.

[2] = system: patients with dementia related psychosis; test: Double-blind, placebo-controlled period: relapse and all-cause discontinuation; conditions: for Hazard Ratio, relapse / Odds ratio, relapse: vs placebo
Procedure: as §1, §2
Randomization occurred at the double-blind Baseline visit (Week 12). Patients were randomly assigned 1:1 to continue their pimavanserin dose (34 mg or 20 mg) or matching placebo. Randomization was stratified by most likely dementia subtype or most prominent cause of dementia (Alzheimer's disease or frontotemporal dementia spectrum disorders, vascular dementia, or Parkinson's disease dementia or dementia with Lewy bodies) and by region.
Relapse criteria were assessed weekly for the first 2 weeks after randomization (Weeks 13 and 14), every 2 weeks until Week 26, and every 4 weeks through Week 38. Relapse criteria was also evaluated at unscheduled visits. Any patients who met any of the relapse criteria after randomization were withdrawn from study drug and entered the safety follow-up period of the study.

[3] = system: patients with dementia related psychosis; test: Safety and tolerability (MMSE, long-term tolerability)
Procedure: Safety and tolerability of pimavanserin was also evaluated compared to placebo in patients with dementia related psychosis who have been stabilized on pimavanserin therapy. Safety endpoints were: treatment-emergent adverse events (TEAEs); serious adverse events (SAEs); withdrawals due to adverse events (AEs); clinically important changes in other safety assessments; Global Clinician Assessment of Suicidality (GCAS) score; Mini-Mental State Examination (MMSE) score; and Extrapyramidal Symptom Rating Scale (ESRS) score.

[4] = open-label period, Overall N = 351

SMILES: CC(C)COc1ccc(CNC(=O)N(Cc2ccc(F)cc2)C2CCN(C)CC2)cc1 [pimavanserin, N-(4-Fluorophenylmethyl)-N-(1-methylpiperidin-4-yl)-N′-(4-(2-methylpropyloxy)phenylmethyl)carbamide]
- psychosis (total SAPS-H+D change), exploratory analysis ([1]; across subtypes of dementia, baseline MMSE, baseline dementia severity, FIGS. 4A-C): substantially reduced psychosis
- patients meeting response criteria ([1]; by Week 4, FIG. 2A): about 50%
- patients meeting response criteria ([1]; by Week 8, FIG. 2B): about 70%
- total SAPS-H+D reduction in change from open-label baseline ([1]; by Week 12, FIG. 1): 75.2%
- CGI-S score reduction from baseline ([1]; by Week 12, overall population and across subtypes of dementia, FIG. 5A, 5B): about 2
- response rate across subgroups ([1]; dementia subtypes, baseline MMSE, age, psychosis severity, FIG. 2C-2F): consistently high response rate
- patients demonstrating sustained response ([1]; open label period): > 60%
- Early Termination: Adverse Event, (%) ([1]; open-label period, AD N = 229): (7.9) %
- Early Termination: Lack of Response in Open Label, (%) ([1]; open-label period, AD N = 229): (20.1) %
- Randomized to Double-blind Period, (%) ([1]; open-label period, AD N = 229): (59.8) %
- Early Termination: Adverse Event, (%) ([1]; open-label period, DLB N = 22): (4.5) %
- Early Termination: Lack of Response in Open Label, (%) ([1]; open-label period, DLB N = 22): (40.9) %
- Randomized to Double-blind Period, (%) ([1]; open-label period, DLB N = 22): (45.5) %
- Early Termination: Adverse Event, (%) ([1]; open-label period, FTD N = 6): (16.7) %
- Early Termination: Lack of Response in Open Label, (%) ([1]; open-label period, FTD N = 6): (33.3) %
- Randomized to Double-blind Period, (%) ([1]; open-label period, FTD N = 6): (50) %
- Early Termination: Adverse Event, (%) [1, 4]: (7.7) %
- Early Termination: Adverse Event, Number [1, 4]: 27
- Early Termination: Death, (%) [1, 4]: (0.3) %
- Early Termination: Death, Number [1, 4]: 1
- Early Termination: Lack of Response in Open Label, (%) [1, 4]: (19.9) %
- Early Termination: Lack of Response in Open Label, Number [1, 4]: 70
- Randomized to Double-blind Period, (%) [1, 4]: (61.8) %
- Randomized to Double-blind Period, Number [1, 4]: 217
- Early Termination: Adverse Event, (%) ([1]; open-label period, PDD N = 59): (6.8) %
- Early Termination: Death, (%) ([1]; open-label period, PDD N = 59): (1.7) %
- Early Termination: Lack of Response in Open Label, (%) ([1]; open-label period, PDD N = 59): (15.3) %
- Randomized to Double-blind Period, (%) ([1]; open-label period, PDD N = 59): (71.2) %
- Early Termination: Adverse Event, (%) ([1]; open-label period, VaD N = 35): (8.6) %
- Early Termination: Lack of Response in Open Label, (%) ([1]; open-label period, VaD N = 35): (11.4) %
- Randomized to Double-blind Period, (%) ([1]; open-label period, VaD N = 35): (71.4) %
- Incidence of relapse, (%) ([2]; AD): 13.1%
- Incidence of relapse, n/N ([2]; AD): 8/61
- Hazard Ratio, relapse ([2]; AD): 0.618
- Odds ratio, relapse ([2]; AD): 0.5175
- Hazard Ratio (Pimavanserin/Placebo), relapse ([2]; Cox regression, 95% CI (0.172, 0.727), one-sided p 0.0023): 0.353
- Hazard Ratio (Pimavanserin/Placebo), all-cause discontinuation ([2]; Cox regression, 95% CI (0.261, 0.785), one-sided p 0.0024): 0.452
- Incidence of relapse, (%) ([2]; DLB): 0.0%
- Incidence of relapse, n/N ([2]; DLB): 0/6
- Incidence of relapse, (%) ([2]; FTD): 100%
- Incidence of relapse, n/N ([2]; FTD): 1/1
- Incidence of relapse, (%) ([2]; Overall): 12.6%
- Incidence of relapse, n/N ([2]; Overall): 12/95
- Hazard Ratio, relapse ([2]; Overall): 0.353
- Odds ratio, relapse ([2]; Overall): 0.3666
- Incidence of relapse, (%) ([2]; PDD): 6.7%
- Incidence of relapse, n/N ([2]; PDD): 1/15
- Hazard Ratio, relapse ([2]; PDD): 0.054
- Odds ratio, relapse ([2]; PDD): 0.0714
- Incidence of relapse, (%) ([2]; VaD): 16.7%
- Incidence of relapse, n/N ([2]; VaD): 2/12
- Hazard Ratio, relapse ([2]; VaD): 1.065
- Odds ratio, relapse ([2]; VaD): 1.00
- reduction of risk of relapse of dementia related psychosis (psychotic exacerbation) compared to placebo ([2]; double-blind period, FIG. 6): 2.8 times
- reduction of risk of all-cause discontinuation compared to placebo ([2]; double-blind period, FIG. 7): 2.2 ×
- Completed Week 26 Without a Relapse, (%) ([2]; double-blind period, N = 95): 38.9%
- Number of Patients Discontinued for Any Reason, (%) ([2]; double-blind period, N = 95): 22.1%
- Number of Patients Having a Relapse Event, (%) ([2]; double-blind period, N = 95): 12.6%
- patients on placebo more likely to drop out of the trial for any reason ([2]; placebo vs pimavanserin): 2.2 times
- tolerability ([3]; 34 mg, given long term in the elderly population): well tolerated
- impact on cognition (MMSE) ([3]; over 9 months of treatment, FIG. 8): no negative impact
